Measurements taken from patent US20100297145A1, “Apoptosis promoter, cell proliferation inhibitor, prophylactic/therapeutic agent for cancer, screening method for the promoter, inhibitor or agent” (priority 2005, published 2010).

Key:
Assay type in all cases: cell-based, human
DU145/PCA-1 [1] = assay: Cell growth of PCA-1-overexpressing cell line with EGF stimulation (MTS reagent); conditions: EGF 10 ng/ml, 36 hours, serum-free, pretreatment with ERK inhibitor
Procedure: (§1) The human prostate cancer cell line DU145 (purchased from ATCC) was cultured in RPMI medium (in the presence of 10% serum) and used. The human PCA-1 gene was cleaved out from a PCA-1 vector, and this was inserted into pIRES/Neo, which is a vector that encodes the neomycin resistance gene (hereinafter pIRES/Neo/PCA-1). […] For control, a clone (DU145/Neo) incorporating an empty vector, and cultured under the same conditions, was used.
Experiments were performed using the MTS [(3-(4,5-dimethylthiazol-2-yl)-5-(3-carboxymethoxyphenyl)-2-(4-sulphonyl)-2H-tetrazolium, inner salt] reagent (Promega, Tokyo, Japan) in accordance with the attached protocol.
Cell growth for 36 hours under serum-free conditions was examined.

DU145/PCA-1 [2] = assay: Paclitaxel-induced apoptosis quantified by flowcytometry
Procedure: as §1
A control cell line (DU145/Neo) and DU145/PCA-1 were stimulated with paclitaxel (100 nM); 48 hours later, apoptosis was quantified using flowcytometry.

DU145 [3] = assay: WST-1 method, growth of DU145 transfected with siRNA
Procedure: (§2) The human prostate cancer cell line DU145 (purchased from ATCC) was cultured in RPMI1640 medium (in the presence of 10% fetal bovine serum) and used.
(§3) DU145 was transiently transfected with siRNAs against PCA-1 ([…] (SEQ ID NO:4), […] (SEQ ID NO:5), […] (SEQ ID NO:6)) using DharmaFECT 1 (GE Healthcare Bioscience.). Expression suppression and knockdown effects were confirmed by real-time PCR and PCA-1 quantitative ELISA method. Control siRNA ([…] (SEQ ID NO:7)) was purchased from GE Healthcare Bioscience.
Two days after DU145 was transfected with siRNA, the cells were harvested, and 100 μl of the cells were sown to a 96-well plate at 1×10^4/ml. Thereafter, 10 μl of a 1:9 mixture of a 1-methoxy PMS (1-methoxy-5-methylphenazinium.methylsulfate) solution and a WST-1 (2-(4-Iodophenyl)-3-(4-nitrophenyl)-5-(2,4-disulfophenyl)-2H-tetrazolium, monosodium salt) solution was added to each well every 24 hours; 1 hour later, absorbance was measured at 450 nm. As the control wavelength, 630 nm was used. The day of the start of transfection is designated as day 0.

DU145 [4] = assay: Apoptosis analysis (propidium iodide, flowcytometer) of DU145 transfected with siRNA
Procedure: as §2, §3
After DU145 was transfected with PCA-1 siRNA, the cells were harvested and fixed with ethanol. Thereafter, the cells were stained with propidium iodide, and the ratio of apoptosis cells was analyzed using a flowcytometer.

DU145/PCA-1 [5] = assay: TRAIL-induced apoptosis analyzed by flowcytometry; conditions: TRAIL 50 ng/ml, 24 hours
Procedure: as §1
TRAIL is drawing attention as a new-generation anticancer agent for prostate cancer, and it has been reported that FLIP acts suppressively on the mechanism therefor.

N#CC(=C(/N)Sc1ccccc1N)/C(C#N)=C(\N)Sc1ccccc1N [U0126]
effect of pretreatment on EGF-stimulated growth increase of DU145/PCA-1 (DU145/PCA-1 [1]): inhibited (cancelled)
effect on the paclitaxel-induced apoptosis inhibitory effect of PCA-1 (DU145/PCA-1 [2]; DU145/PCA-1, paclitaxel 100 nM, with ERK inhibitor): cancelled

CC(=O)O[C@H]1C(=O)[C@@]2(C)[C@H]([C@H](OC(=O)c3ccccc3)[C@]3(O)C[C@H](OC(=O)[C@H](O)[C@@H](NC(=O)c4ccccc4)c4ccccc4)C(C)=C1C3(C)C)[C@]1(OC(C)=O)CO[C@@H]1C[C@@H]2O [paclitaxel]
paclitaxel-induced apoptosis in DU145/PCA-1 compared with control strain (DU145/Neo) (DU145/PCA-1 [2]; paclitaxel 100 nM, 48 hours): significantly inhibited

Control siRNA: Control siRNA (auccgcgcgauaguacgua (SEQ ID NO:7)) purchased from GE Healthcare Bioscience (AUCCGCGCGAUAGUACGUA; listed as RNA, chemistry not given here)
absorbance relative to the absorbance on day 3 written as 1 (DU145 [3]; DU145, Day 3): 1
absorbance relative to the absorbance on day 3 written as 1 (DU145 [3]; DU145, Day 4): 1.99
absorbance relative to the absorbance on day 3 written as 1 (DU145 [3]; DU145, Day 5): 3.98
absorbance relative to the absorbance on day 3 written as 1 (DU145 [3]; DU145, Day 6): 7.25
absorbance relative to the absorbance on day 3 written as 1 (DU145 [3]; DU145, Day 7): 11.91
absorbance relative to the absorbance on day 3 written as 1 (DU145 [3]; DU145, Day 8): 12.90
growth of DU145 over time (in words) (DU145 [3]; DU145 transfected cells, WST-1): remarkable growth
ratio of apoptosis cells (DU145 [4]; DU145, Day 2): 0.98%
ratio of apoptosis cells (DU145 [4]; DU145, Day 3): 1.96%
ratio of apoptosis cells (DU145 [4]; DU145, Day 4): 5.00%
ratio of apoptosis cells (DU145 [4]; DU145, Day 5): 1.88%

B1: TRAIL: tumor necrosis factor-related apoptosis-inducing ligand (protein, UniProt P50591 1-281, looked up)
Tumor necrosis factor ligand …: MAMMEVQGGPSLGQTCVLIVIFTVLLQSLCVAVTYVYFTNELKQMQDKYSKSGIACFLKEDDSYWDPNDEESMNSPCWQVKWQLRQLVRKMILRTSEETISTVQEKQQNISPLVRERGPQRVAAHITGTRGRSNTLSSPNSKNEKALGRKINSWESSRSGHSFLSNLHLRNGELVIHEKGFYYIYSQTYFRFQEEIKENTKNDKQMVQYIYKYTSYPDPILLMKSARNSCWSKDAEYGLYSIYQGGIFELKENDRIFVSVTNEHLIDMDHEASFFGAFLVG
apoptosis induction in DU145/PCA-1 compared with control (DU145/Neo) (DU145/PCA-1 [5]): significantly inhibited
